# What was measured:
# human PI3Kα protein = biological target: T1, human PI3Kα protein (Homo sapiens, UniProt P42336); test: PI3Kα enzyme assay (ADP-Glo); assay type: biochemical; details: read-out: PI3Kα enzyme inhibitory activity
# T1 construct: purchased Carna Biosciences, Inc; host or cells: baculovirus expression system
# How it was run: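 Biotinylated human PI3Kα (baculovirus-expressed, 4.5 nmol/L) pre-incubated 15 min with compound in Tris-HCl pH 7.5, MgCl2, BSA; reaction 60 min at 25° C with 50 μmol/L PIP2 and 100 μmol/L ATP final. ADP quantified by ADP-Glo luminescence; IC50 calculated.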
# [1] = biological target: T2, GST fusion human ERK2 protein (Homo sapiens, UniProt P28482); test: ERK2 enzyme assay (2); assay type: biochemical; details: ERK2 enzyme assay (2); read-out: ERK2 enzyme inhibitory activity (2)
# T2 construct: purchased Carna Biosciences, Inc; host or cells: E. coli expression system
# How it was run: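 GST-tagged human ERK2 expressed in E. coli (1.25 nmol/L) was preincubated with compound for 15 min at room temperature in pH 7.5 Hepes buffer with MgCl2, DTT and Brij35. Reaction with FL-Peptide 8 (final 4.25 μmol/L) and ATP (final 1 mmol/L) ran 120 min at 25 °C; EDTA stopped it, and phosphorylated peptide was quantified by mobility-shift separation to derive IC50.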
# T2 sequence (P28482 whole entry, the tested form may be a part): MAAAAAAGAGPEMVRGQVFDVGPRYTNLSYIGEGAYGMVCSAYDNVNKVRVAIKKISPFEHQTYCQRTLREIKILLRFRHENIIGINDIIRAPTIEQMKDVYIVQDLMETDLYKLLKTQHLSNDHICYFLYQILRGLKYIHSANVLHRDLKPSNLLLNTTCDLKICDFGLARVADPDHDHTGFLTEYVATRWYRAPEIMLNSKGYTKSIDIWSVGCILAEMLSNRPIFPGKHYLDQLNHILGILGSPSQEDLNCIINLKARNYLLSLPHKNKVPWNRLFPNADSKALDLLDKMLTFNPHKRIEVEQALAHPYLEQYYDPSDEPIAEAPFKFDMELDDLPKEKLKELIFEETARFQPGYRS
# T1 sequence (P42336 whole entry): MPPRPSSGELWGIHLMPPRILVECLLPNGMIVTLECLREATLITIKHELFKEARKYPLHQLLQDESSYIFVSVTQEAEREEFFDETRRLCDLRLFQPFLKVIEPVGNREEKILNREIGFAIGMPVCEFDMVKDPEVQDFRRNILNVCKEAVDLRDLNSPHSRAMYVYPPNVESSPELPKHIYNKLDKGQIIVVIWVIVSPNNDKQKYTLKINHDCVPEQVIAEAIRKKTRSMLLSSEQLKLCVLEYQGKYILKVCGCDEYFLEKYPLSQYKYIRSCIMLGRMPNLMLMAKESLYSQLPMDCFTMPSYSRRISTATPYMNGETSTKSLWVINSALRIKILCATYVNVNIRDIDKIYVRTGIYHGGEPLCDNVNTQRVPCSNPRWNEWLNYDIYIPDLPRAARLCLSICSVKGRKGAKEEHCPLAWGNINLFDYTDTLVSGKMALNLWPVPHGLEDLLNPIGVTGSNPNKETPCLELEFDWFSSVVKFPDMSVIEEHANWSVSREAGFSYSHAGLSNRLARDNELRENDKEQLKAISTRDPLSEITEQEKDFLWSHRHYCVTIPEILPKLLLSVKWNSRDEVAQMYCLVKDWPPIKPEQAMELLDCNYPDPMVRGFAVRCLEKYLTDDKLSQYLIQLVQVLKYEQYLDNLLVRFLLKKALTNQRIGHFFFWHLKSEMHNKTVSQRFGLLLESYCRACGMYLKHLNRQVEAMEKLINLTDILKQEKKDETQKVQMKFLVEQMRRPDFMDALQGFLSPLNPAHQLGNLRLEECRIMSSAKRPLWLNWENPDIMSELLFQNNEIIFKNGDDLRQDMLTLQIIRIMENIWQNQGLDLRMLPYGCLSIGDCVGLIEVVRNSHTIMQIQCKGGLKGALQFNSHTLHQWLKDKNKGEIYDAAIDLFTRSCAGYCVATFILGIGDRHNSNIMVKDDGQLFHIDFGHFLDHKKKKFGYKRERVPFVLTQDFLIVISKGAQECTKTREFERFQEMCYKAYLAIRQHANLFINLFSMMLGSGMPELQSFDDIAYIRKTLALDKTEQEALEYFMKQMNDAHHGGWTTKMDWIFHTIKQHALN
# T1 sequence (P27986 whole entry partner): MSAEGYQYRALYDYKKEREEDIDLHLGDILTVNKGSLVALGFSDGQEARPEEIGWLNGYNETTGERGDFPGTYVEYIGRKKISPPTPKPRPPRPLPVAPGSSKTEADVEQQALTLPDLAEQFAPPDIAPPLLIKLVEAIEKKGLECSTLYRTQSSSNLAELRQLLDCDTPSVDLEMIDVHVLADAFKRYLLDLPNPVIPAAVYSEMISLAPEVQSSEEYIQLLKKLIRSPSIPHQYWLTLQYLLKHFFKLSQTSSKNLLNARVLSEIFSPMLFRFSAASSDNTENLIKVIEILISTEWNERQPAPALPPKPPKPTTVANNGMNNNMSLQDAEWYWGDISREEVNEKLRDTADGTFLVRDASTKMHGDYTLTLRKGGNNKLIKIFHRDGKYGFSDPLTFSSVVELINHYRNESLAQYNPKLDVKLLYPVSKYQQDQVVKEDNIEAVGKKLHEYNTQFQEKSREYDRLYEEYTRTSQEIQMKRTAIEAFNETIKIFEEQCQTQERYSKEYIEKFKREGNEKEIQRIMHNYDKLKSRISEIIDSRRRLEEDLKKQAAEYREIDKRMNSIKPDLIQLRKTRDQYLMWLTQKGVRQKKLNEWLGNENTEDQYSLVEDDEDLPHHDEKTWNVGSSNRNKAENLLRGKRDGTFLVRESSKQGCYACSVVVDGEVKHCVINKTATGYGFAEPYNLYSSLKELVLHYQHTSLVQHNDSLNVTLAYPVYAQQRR
SMILES,IC50 (human PI3Kα protein) [µM],IC50 [1] [µM]
Cc1n[nH]c(C)c1-c1cnc2ccc(Nc3cc(C(C)C)cnn3)nc2c1 [Example 0621],1 to 10,< 1
"CC(C)c1cnnc(Nc2ccc3ncc(N)cc3n2)c1 [Example 0623, N^2-(5-isopropylpyridazin-3-yl)-1,5-naphthyridine-2,7-diamine]",1 to 10,1 to 10
"Cc1nn(C)c(C)c1-c1cnc2ccc(Nc3cc(C(C)C)cnn3)nc2c1 [Example 0624, N-(5-isopropylpyridazin-3-yl)-7-(1,3,5-trimethyl-1H-pyrazol-4-yl)-1,5-naphthyridine-2-amine]",1 to 10,< 1
"CC(C)c1cnnc(Nc2ccc3ncc(N(C)C)cc3n2)c1 [Example 0627, N^2-(5-isopropylpyridazin-3-yl)-N^7,N^7-dimethyl-1,5-naphthyridine-2,7-diamine]",1 to 10,< 1
"CC(=O)N(C)c1cnc2ccc(Nc3cc(C(C)C)cnn3)nc2c1 [Example 0628, N-(6-((5-isopropylpyridazin-3-yl)amino)-1,5-naphthyridin-3-yl)-N-methylacetamide]",10 to 50,< 1
"C=Cc1cnc2ccc(Nc3cc(C(C)C)cnn3)nc2c1 [Example 0638, N-(5-isopropylpyridazin-3-yl)-7-vinyl-1,5-naphthyridine-2-amine]",1 to 10,< 1
"CC(C)c1cnnc(Nc2ccc3ncc(C(=O)O)cc3n2)c1 [Example 0639, 6-((5-isopropylpyridazin-3-yl)amino)-1,5-naphthyridine-3-carboxylic acid]",1 to 10,10 to 50
"CC(C)c1cnnc(Nc2ccc3ncc(C(N)=O)cc3n2)c1 [Example 0640, 6-((5-isopropylpyridazin-3-yl)amino)-1,5-naphthyridine-3-carboxamide]",1 to 10,< 1
CNC(=O)c1cnc2ccc(Nc3cc(C(C)C)cnn3)nc2c1 [Example 0642],1 to 10,< 1
"CC(C)c1cnnc(Nc2ccc3ncc(C(=O)NCCO)cc3n2)c1 [Example 0655, N-(2-hydroxyethyl)-6-((5-isopropylpyridazin-3-yl)amino)-1,5-naphthyridine-3-carboxamide]",1 to 10,1 to 10
"CC(C)c1cnnc(Nc2ccc3ncc(/C=C/c4ccccn4)cc3n2)c1 [Example 0656, (E)-N-(5-isopropylpyridazin-3-yl)-7-(2-(pyridin-2-yl)vinyl)-1,5-naphthyridine-2-amine]",< 1,1 to 10
CC(C)c1cnnc(Nc2ccc3ncc(-c4cnn(CCCN5CCOC(C)(C)C5)c4)cc3n2)c1 [Example 0658],< 1,< 1
COCCN(CCCn1cc(-c2cnc3ccc(Nc4cc(C(C)C)cnn4)nc3c2)cn1)CCOC [Example 0660],< 1,< 1
CC(C)c1cnnc(Nc2ccc3ncc(-c4cnn(CCCN(C)CC(=O)OC(C)(C)C)c4)cc3n2)c1 [Example 0661],< 1,< 1
"CC(C)c1cnnc(Nc2ccc3ncc(NC(=O)CO)cc3n2)c1 [Example 0662, 2-hydroxy-N-(6-((5-isopropylpyridazin-3-yl)amino)-1,5-naphthyridin-3-yl)acetamide]",< 1,1 to 10
CC(C)c1cnnc(Nc2ccc3ncc(C(=O)NCCCO)cc3n2)c1 [Example 0663],1 to 10,1 to 10
CC(C)c1cnnc(Nc2ccc3ncc(C(=O)NCCCCO)cc3n2)c1 [Example 0664],1 to 10,1 to 10
CC(C)c1cnnc(Nc2ccc3ncc(-c4cnn(CCCN5CC(C(=O)O)C5)c4)cc3n2)c1 [Example 0666],< 1,< 1
"CC(C)c1cnnc(Nc2ccc3ncc(-c4cnn(CCCN(C)CC(=O)O)c4)cc3n2)c1 [Example 0667, 2-((3-(4-(6-((5-isopropylpyridazin-3-yl)amino)-1,5-naphthyridin-3-yl)-1H-pyrazol-1-yl)propyl) (methyl)amino)acetic acid]",< 1,< 1

# The next lines start with the values.
IC50 (human PI3Kα protein) [µM],IC50 [1] [µM],SMILES
< 1,< 1,"CC(C)c1cnnc(Nc2ccc3ncc(-c4cnn(CCCN5CCOCC5C)c4)cc3n2)c1 (stereo not shown) [Example 0607, N-(5-isopropylpyridazin-3-yl)-7-(1-(3-(3-methylmorpholino)propyl)-1H-pyrazol-4-yl)-1,5-naphthyridine-2-amine]"
< 1,< 1,CC1CN(CCCn2cc(-c3cnc4ccc(Nc5cc(C(C)C)cnn5)nc4c3)cn2)CCO1 (stereo not shown) [Example 0608]
< 1,< 1,"CC(C)c1cnnc(Nc2ccc3ncc(-c4cnn(CCN5CCCCC5)c4)cc3n2)c1 [Example 0609, N-(5-isopropylpyridazin-3-yl)-7-(1-(2-(piperidin-1-yl)ethyl)-1H-pyrazol-4-yl)-1,5-naphthyridine-2-amine]"
< 1,< 1,"C=Cn1cc(-c2cnc3ccc(Nc4cc(C(C)C)cnn4)nc3c2)cn1 [Example 0610, N-(5-isopropylpyridazin-3-yl)-7-(1-vinyl-1H-pyrazol-4-yl)-1,5-naphthyridine-2-amine]"
< 1,< 1,CC(C)c1cnnc(Nc2ccc3ncc(-c4cnn(CCN5CCC5)c4)cc3n2)c1 [Example 0611]
< 1,< 1,CC(C)c1cnnc(Nc2ccc3ncc(-c4cnn(CCN5CC(O)C5)c4)cc3n2)c1 [Example 0612]
< 1,< 1,"CC(C)c1cnnc(Nc2ccc3ncc(-c4cnn(CCN5C[C@H](C)O[C@@H](C)C5)c4)cc3n2)c1 [Example 0616, 7-(1-(2-((2S,6S)-2,6-dimethylmorpholino)ethyl)-1H-pyrazol-4-yl)-N-(5-isopropylpyridazin-3-yl)-1,5-naphthyridine-2-amine]"
< 1,< 1,"CC(C)c1cnnc(Nc2ccc3ncc(-c4cnn(CCN5C[C@@H](C)O[C@@H](C)C5)c4)cc3n2)c1 [Example 0617, 7-(1-(2-((2S,6R)-2,6-dimethylmorpholino)ethyl)-1H-pyrazol-4-yl)-N-(5-isopropylpyridazin-3-yl)-1,5-naphthyridine-2-amine]"
< 1,< 1,CC(C)c1cnnc(Nc2ccc3ncc(-c4ccc(=O)n(CCCN5CCOCC5)c4)cc3n2)c1 [Example 0618]
< 1,< 1,"CC(C)c1cnnc(Nc2ccc3ncc(-c4cnn(CCN5CC6(COC6)C5)c4)cc3n2)c1 [Example 0619, 7-(1-(2-(2-Oxa-6-azaspiro[3.3]heptan-6-yl)ethyl)-1H-pyrazol-4-yl)-N-(5-isopropylpyridazin-3-yl)-1,5-naphthyridine-2-amine]"
< 1,< 1,CC(C)c1cnnc(Nc2ccc3ncc(-c4cncs4)cc3n2)c1 [Example 0620]
< 1,< 1,"CC(C)c1cnnc(Nc2ccc3ncc(-c4ccn[nH]4)cc3n2)c1 [Example 0622, N-(5-isopropylpyridazin-3-yl)-7-(1H-pyrazol-5-yl)-1,5-naphthyridine-2-amine]"
< 1,1 to 10,"CC(=O)Nc1cnc2ccc(Nc3cc(C(C)C)cnn3)nc2c1 [Example 0625, N-(6-((5-isopropylpyridazin-3-yl)amino)-1,5-naphthyridin-3-yl)acetamide]"
< 1,1 to 10,"COCCC(=O)Nc1cnc2ccc(Nc3cc(C(C)C)cnn3)nc2c1 [Example 0632, N-(6-((5-isopropylpyridazin-3-yl)amino)-1,5-naphthyridin-3-yl)-3-methoxypropanamide]"
< 1,< 1,Cn1cc(-c2cnc3ccc(Nc4cc(C5(C)CC5)cnn4)nc3c2)cn1 [Example 0633]
< 1,< 1,CC(C)c1cnnc(Nc2ccc3ncc(-c4cn(C)nc4C(F)(F)F)cc3n2)c1 [Example 0634]
< 1,< 1,"CC(C)c1cnnc(Nc2ccc3ncc(-c4cn(C)nc4N)cc3n2)c1 [Example 0636, 7-(3-amino-1-methyl-1H-pyrazol-4-yl)-N-(5-isopropylpyridazin-3-yl)-1,5-naphthyridine-2-amine]"
< 1,< 1,"CC(C)c1cnnc(Nc2ccc3ncc(-c4cnn(CCC5OCCCO5)c4)cc3n2)c1 [Example 0641, 7-(1-(2-(1,3-Dioxan-2-yl)ethyl)-1H-pyrazol-4-yl)-N-(5-isopropylpyridazin-3-yl)-1,5-naphthyridine-2-amine]"
< 1,< 1,"COC(CCn1cc(-c2cnc3ccc(Nc4cc(C(C)C)cnn4)nc3c2)cn1)OC [Example 0646, 7-(1-(3,3-dimethoxypropyl)-1H-pyrazol-4-yl)-N-(5-isopropylpyridazin-3-yl)-1,5-naphthyridine-2-amine]"
< 1,< 1,"CC(C)c1cnnc(Nc2ccc3ncc(/C=C/c4cccnc4)cc3n2)c1 [Example 0648, (E)-N-(5-isopropylpyridazin-3-yl)-7-(2-(pyridin-3-yl)vinyl)-1,5-naphthyridine-2-amine]"
< 1,< 1,"CC(C)c1cnnc(Nc2ccc3ncc(/C=C/c4ccncc4)cc3n2)c1 [Example 0652, (E)-N-(5-isopropylpyridazin-3-yl)-7-(2-(pyridin-4-yl)vinyl)-1,5-naphthyridine-2-amine]"
< 1,1 to 10,"CC(C)c1cnnc(Nc2ccc3ncc(NC(=O)COCc4ccccc4)cc3n2)c1 [Example 0654, 2-(benzyloxy)-N-(6-((5-isopropylpyridazin-3-yl)amino)-1,5-naphthyridin-3-yl)acetamide]"

# Source: US9783536B2, “Nitrogen-containing heterocyclic compound or salt thereof” (FUJIFILM Corporation, priority 2013, dated 2017)
